Test results reported in patent publication US7084158B2, “Substituted propargylamines” (Bayer Cropscience S.A., priority 2001, dated 2006).

Legend:
Type in all cases: in vivo
Design in all cases: key: compounds were considered to be active when, at a concentration of 500 ppm or less, they had an activity on the harmful organisms of 50% or more
Carpocapsa pomonella = experiment: Example D: dipped apples, codling moth L1 larvae mortality; details: 500 ppm or less, after 14 days
Protocol: Apples were dipped into an aqueous solution of the formulated compound to be examined. The apples were then populated with 10 L1 larvae of the codling moth (Carpocapsa pomonella). After 14 days of storage at about 25° C., the effect of the compound on the larvae was determined (mortality). The compounds of the following examples were active: Nos. 14, 15, 17, 18, 70, 1007, 1008, 1009, 1036, 1038, 197.

Spodoptera littoralis [1] = experiment: Example E: cotton leaves sprayed, Egyptian cotton leafworm L2 larvae mortality; details: 500 ppm or less, after 4 days
Protocol: Leaves of cotton plants were placed into a Petri dish, populated with 10 L2 larvae of the Egyptian cotton leafworm (Spodoptera littoralis) and sprayed with an aqueous solution of the formulated compound to be examined. After 4 days of storage at about 23° C., the effect of the compound on the larvae was determined (mortality). The compounds of the following examples were active: Nos. 18, 70, 1007, 1008, 1009, 1036 und 1038.

Heliothis virescens = experiment: Example B: tobacco budworm eggs on filter paper/insect diet, mortality; details: 500 ppm or less; 24-hour-old eggs dipped, diet treated; after 6 days
[2] = test system: Diabrotica undecimpunctata; experiment: Example C: corn rootworm eggs with maize corn, mortality; details: 500 ppm or less; 4-5-day-old eggs; after 6 days
Aphis fabae = experiment: Example F: field bean dip, black bean aphid mortality; details: 500 ppm or less; plants and aphids dipped; after 3 and 6 days
Protocol: Germinated field bean seeds (Vicia faba) with radicles were transferred into brown glass bottles filled with tap water and subsequently populated with approximately 100 black bean aphids (Aphis fabae). Plants and aphids were then dipped for 5 seconds into an aqueous solution of the formulated compound to be examined. After the solution had run off, plants and animals were stored in a climatized chamber (16 hours of light/day, 25° C., 40–60% relative atmospheric humidity). After 3 and 6 days of storage, the effect of the compound on the aphids was determined (mortality). The compounds of the following examples were active: 30, 43, 228, 262, 291.

Nilaparvata lugens = experiment: Example A: rice leaf dip, leafhopper larvae mortality; details: 500 ppm or less; L3 larvae on dipped rice plants; after 6 days
Protocol: The leaves of 12 rice plants having a stem length of 8 cm were dipped for 5 seconds into an aqueous solution of the formulated compound to be examined. After the solution had run off, the rice plants treated in this manner were placed into a Petri dish and populated with about 20 larvae (L3 stage) of the rice leafhopper species Nilaparvata lugens. The Petri dish was closed and then stored in a climatized chamber (16 hours of light/day, 25° C., 40–60% relative atmospheric humidity). After 6 days of storage, the mortality among the leafhopper larvae was determined. The compounds of the following examples were active: Nos. 29, 32, 42, 43, 51, 70, 84, 1002, 1004, 1005, 1040, 180, 184, 193, 197, 203, 209, 1059, 264, 265, 1066.

Spodoptera exigua = experiment: Example S: treated L2 larvae and insect diet, sugar beet army worm mortality; details: 500 ppm or less, after 6 days
Protocol: A Petri dish whose bottom was covered with filter paper and which contains about 5 ml of insect diet is prepared. Five L2 larvae of sugar beet army worm (Spodoptera exigua) were counted into a small beaker. 200 μl of an aqueous solution of the formulated compound to be examined were pipetted into the beaker. The treated larvae were then poured into the Petri dish and a further 200 μl of the aqueous solution were distributed over the insect diet. The Petri dish was closed and then stored at 25° C. in a climatized chamber. After 6 days of storage, the mortality among the larvae was determined. The following examples were active: 1036, 175, 184, 1051, 1054, 1055, 234, 1057, 1059, 1060, 1063, 243, 245, 251, 257, 259, 266, 1065, 1067, 290, 291.

[3] = test system: Diabrotica undecimpunctata; experiment: Example AC: treated soil, southern corn rootworm eggs mortality; details: 500 ppm or less, eggs added after 0d, 21d and 42d, after 2 weeks
Protocol: An aqueous solution of the formulated compound to be examined was mixed with soil. After 0d, 21d and 42d, eggs of the southern corn rootworm (Diabrotica undecimpunctata) were placed together with 2 pre-swollen maize corns into a dish, covered with the treated soil and moisted with 10 ml of water. Soil and eggs were placed in a greenhouse (23° C., 60% relative atmosphere humidity). After 2 weeks of storage, the effect of the compound on the eggs and any larvae hatched therefrom was determined (mortality). The following examples were active: 70, 60, 197, 204.

Aedes aegypti = experiment: Example AG: microtiter plate, yellow fever mosquito larvicidal activity; details: 500 ppm or less, after 3 days
Meloidogyne incognita = experiment: Example H: root gall nematode larvae immobilization (contact activity); details: 500 ppm or less; 2nd stage larvae; 6 days permanent exposure
Protocol: In a glass vessel, an aqueous solution of the formulated compound to be examined was added to about 3000 freshly hatched active (mobile) larvae (2nd development stage) of the root gall nematode (Meloidogyne incognita) (final volume 20 ml). After 6 days of permanent exposure of the nematode larvae, the percentage of the individual larvae immobilized by the activity of the compound was determined in comparison to the untreated controls (contact activity). The compounds of the following examples were active: 39, 52, 159, 161, 162, 163, 164, 165, 1045, 1046, 1047, 179, 183, 187, 1048, 298, 206, 208, 227, 230, 1061, 237, 238, 245, 250, 255, 256, 260, 268, 269, 274, 275, 288, 290.

[4] = test system: Trialeurodes vaporariorum; experiment: Example AD: bush beans sprayed, white fly larvicidal action; details: 500 ppm or less; bush beans sprayed after hatching; after 11 days
Protocol: For oviposition, bush beans (Phaseolus vulgaris) were populated for 48 hours with adults of the white fly (Trialeurodes vaporariorum). After the larvae had hatched, the plants were sprayed to run-off point with an aqueous solution of the formulated compound to be examined. After 11 days, the larvicidal action was determined. The following examples were active: 1036, 70, 60, 1040, 197.

Spodoptera littoralis [5] = experiment: Example G: treated L2 larvae and insect diet, Egyptian cotton leafworm mortality; details: 500 ppm or less, after 6 days
Protocol: A Petri dish whose bottom was covered with filter paper and which contained about 5 ml of insect diet is prepared. Five L2 larvae of the Egyptian cotton leafworm (Spodoptera littoralis) were counted into a small beaker. 200 μl of an aqueous solution of the formulated preparation to be examined were pipetted into the beaker. The treated larvae were then poured into the Petri dish, and a further 200 μl of the aqueous solution were distributed over the insect diet. The Petri dish was closed and then stored at about 25° C. in a climatized chamber. After 6 days of storage, the effect of the compound on the larvae was determined (mortality). The compounds of the following examples were active: 29, 70, 60, 159, 1005, 1040, 1042, 1044, 1045, 1046, 1047.

CCC1CCCN(CC#Cc2ccc(Cl)c(C(F)(F)F)c2)C1 (stereo not drawn) [Example 18]
active: effect on the larvae (mortality) (Carpocapsa pomonella) | effect on the larvae (mortality) (Spodoptera littoralis [1]) | effect on the eggs and hatched larvae (mortality) (Heliothis virescens) | effect on the eggs and hatched larvae (mortality) [2]

CC1CCN(CC#Cc2cc(C(F)(F)F)ccc2Cl)CC1 [Example 30]
active: effect on the eggs and hatched larvae (mortality) (Heliothis virescens) | effect on the aphids (mortality) (Aphis fabae)

C[C@@H]1C[C@H](C)CN(CC#Cc2cc(C(F)(F)F)cc(C(F)(F)F)c2)C1 [Example 43]
active: mortality among the leafhopper larvae (Nilaparvata lugens) | effect on the eggs and hatched larvae (mortality) [2] | effect on the aphids (mortality) (Aphis fabae)

Cc1cc(C)cc(-c2ccc(C#CCN3CCC(C)CC3)cc2)c1 [Example 175]
active: effect on the eggs and hatched larvae (mortality) (Heliothis virescens) | mortality among the larvae (Spodoptera exigua)

FC(F)(F)c1cc(C#CCN2CCC(C(F)(F)F)CC2)nc(C(F)(F)F)c1 [Example 204]
active: effect on the eggs and hatched larvae (mortality) (Heliothis virescens) | effect on the eggs and hatched larvae (mortality) [3] | effect on the eggs and hatched larvae (mortality) [2]

CC1CCN(CC#Cc2ccc(-c3ccc(F)cc3)c(F)c2)CC1 [Example 228]
active: effect on the eggs and hatched larvae (mortality) [2] | effect on the aphids (mortality) (Aphis fabae)

CC1CCN(CC#Cc2cc(C(F)(F)F)cc(Cl)n2)CC1 [Example 234]
active: larvicidal activity (Aedes aegypti) | effect on the eggs and hatched larvae (mortality) (Heliothis virescens) | effect on the eggs and hatched larvae (mortality) [2] | mortality among the larvae (Spodoptera exigua)

CC1CCN(CC#Cc2ccc(-c3ccccc3Cl)s2)CC1 [Example 243]
active: mortality among the larvae (Spodoptera exigua)

CC1CCN(CC#Cc2ccc(-c3ccc(Cl)cc3)s2)CC1 [Example 245]
active: larvicidal activity (Aedes aegypti) | effect on the eggs and hatched larvae (mortality) (Heliothis virescens) | percentage of larvae immobilized (contact activity) (Meloidogyne incognita) | mortality among the larvae (Spodoptera exigua)

CC1CCN(CC#Cc2ccc(C#N)c(C(F)(F)F)c2)CC1 [Example 290]
active: larvicidal activity (Aedes aegypti) | effect on the eggs and hatched larvae (mortality) (Heliothis virescens) | percentage of larvae immobilized (contact activity) (Meloidogyne incognita) | effect on the eggs and hatched larvae (mortality) [2] | mortality among the larvae (Spodoptera exigua)

CC1CCN(CC#Cc2ccc(C(F)(F)F)c(Cl)c2)CC1.O=C(O)/C=C/C(=O)O [Example 1008]
active: effect on the larvae (mortality) (Carpocapsa pomonella) | effect on the larvae (mortality) (Spodoptera littoralis [1])

CC1CCN(CC#Cc2cc([N+](=O)[O-])cc(C(F)(F)F)c2)CC1.Cl [Example 1038]
active: effect on the larvae (mortality) (Carpocapsa pomonella) | effect on the larvae (mortality) (Spodoptera littoralis [1]) | effect on the eggs and hatched larvae (mortality) (Heliothis virescens) | effect on the eggs and hatched larvae (mortality) [2]

CC1CCN(CC#Cc2ccc(C(F)(F)F)c(Cl)c2)CC1.CCCCCCCCC(=O)O [Example 1040]
active: effect on the eggs and hatched larvae (mortality) (Heliothis virescens) | mortality among the leafhopper larvae (Nilaparvata lugens) | larvicidal action [4] | effect on the eggs and hatched larvae (mortality) [2] | effect on the larvae (mortality) (Spodoptera littoralis [5])

CC1CCN(CC#Cc2cc(C(F)(F)F)cc(C(F)(F)F)n2)CC1.CCS(=O)(=O)O [Example 1060]
active: larvicidal activity (Aedes aegypti) | effect on the eggs and hatched larvae (mortality) (Heliothis virescens) | effect on the eggs and hatched larvae (mortality) [2] | mortality among the larvae (Spodoptera exigua)
